# In PMC2222910 (The Journal of General Physiology, 1999):
# pEC50: −log10 of the molar value.
# Target: T1, P2X2 purinoceptor (Rattus norvegicus, UniProt P49653)
# T1 sequence (P49653 1-472): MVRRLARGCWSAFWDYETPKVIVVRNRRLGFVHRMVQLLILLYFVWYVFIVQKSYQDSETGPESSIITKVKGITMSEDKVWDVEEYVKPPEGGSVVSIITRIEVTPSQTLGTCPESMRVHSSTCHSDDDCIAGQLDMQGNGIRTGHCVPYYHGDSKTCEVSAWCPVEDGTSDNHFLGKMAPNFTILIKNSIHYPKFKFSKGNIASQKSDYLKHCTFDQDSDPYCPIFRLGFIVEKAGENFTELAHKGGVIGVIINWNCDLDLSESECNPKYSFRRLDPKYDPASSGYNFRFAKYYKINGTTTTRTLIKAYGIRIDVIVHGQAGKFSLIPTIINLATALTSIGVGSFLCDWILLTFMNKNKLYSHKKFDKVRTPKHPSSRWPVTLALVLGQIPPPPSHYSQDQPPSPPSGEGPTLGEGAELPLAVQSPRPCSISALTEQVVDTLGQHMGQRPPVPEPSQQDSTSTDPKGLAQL
# Assay: single channel patch clamp of outside-out patches, Xenopus oocytes
# Type: cell-based
smiles,measurement,value
Nc1ncnc2c1ncn2[C@@H]1O[C@H](COP(=O)(O)OP(=O)(O)OP(=O)(O)O)[C@@H](O)[C@H]1O [ATP],pEC50,4.95
